Reference: patent US11014933B2 (priority 2018, dated 2021)
Structures can show the parent of a compound that is named as a salt. Where two headings read alike, the source gives them in different places.

Tests used:
MOR [1] = molecular target: T1, MOR (Mus musculus, UniProt P42866); test: Competition radioligand binding, MOR ([3H]naloxone); design: expressed in transfected cells; host or cells: CHO; settings: CHO cell membranes
KOR = molecular target: T2, KOR (Homo sapiens, UniProt P41145); test: biochemical; format: binding
T2 construct: expressed in transfected cells; host or cells: CHO
T2 sequence (P41145 whole entry): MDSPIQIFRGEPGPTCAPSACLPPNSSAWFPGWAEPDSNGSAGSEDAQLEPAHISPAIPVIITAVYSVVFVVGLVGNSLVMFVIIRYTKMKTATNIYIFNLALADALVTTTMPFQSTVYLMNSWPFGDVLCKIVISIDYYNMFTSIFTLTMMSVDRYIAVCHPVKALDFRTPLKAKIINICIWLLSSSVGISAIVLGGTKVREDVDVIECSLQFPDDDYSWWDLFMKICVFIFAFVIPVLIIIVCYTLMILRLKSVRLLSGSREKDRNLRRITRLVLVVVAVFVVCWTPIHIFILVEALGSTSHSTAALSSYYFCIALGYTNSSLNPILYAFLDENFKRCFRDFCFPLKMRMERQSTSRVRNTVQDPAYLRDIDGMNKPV

DOR = DOR (Homo sapiens, UniProt P41143); test: biochemical; format: binding; design: expressed in transfected cells; host or cells: CHO
Chain of DOR (P41143 whole entry): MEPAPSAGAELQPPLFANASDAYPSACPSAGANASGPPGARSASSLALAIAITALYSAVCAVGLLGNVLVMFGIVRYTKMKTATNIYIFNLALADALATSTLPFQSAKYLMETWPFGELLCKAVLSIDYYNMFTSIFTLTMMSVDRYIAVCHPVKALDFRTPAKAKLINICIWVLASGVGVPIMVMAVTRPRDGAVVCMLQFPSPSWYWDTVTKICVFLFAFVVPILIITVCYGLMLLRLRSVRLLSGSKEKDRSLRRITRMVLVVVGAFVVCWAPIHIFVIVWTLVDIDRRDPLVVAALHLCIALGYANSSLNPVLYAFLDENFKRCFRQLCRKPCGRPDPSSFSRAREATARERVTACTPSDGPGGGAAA

MOR [2] = molecular target: T1, MOR; settings: for EC50: read-out: MOR 35S-GTP[γS] Binding EC50
MOR [3] = molecular target: T1, MOR; test: biochemical
Swiss Webster mice = test: Tail immersion assay (agonism, and antagonism of morphine); format: in vivo, mouse; settings: for % MPE of morphine (10 mg/kg) in the presence of test compound (antagonism): test compound 10 mg/kg s.c., 5 min before morphine
rat MOR = molecular target: T3, rat MOR (Rattus norvegicus, UniProt P33535); format: cell-based
T3 construct: expressed in transfected cells; host or cells: Neuro2A murine neuroblastoma cells (clones H38 and H16)
T3 sequence (P33535 whole entry): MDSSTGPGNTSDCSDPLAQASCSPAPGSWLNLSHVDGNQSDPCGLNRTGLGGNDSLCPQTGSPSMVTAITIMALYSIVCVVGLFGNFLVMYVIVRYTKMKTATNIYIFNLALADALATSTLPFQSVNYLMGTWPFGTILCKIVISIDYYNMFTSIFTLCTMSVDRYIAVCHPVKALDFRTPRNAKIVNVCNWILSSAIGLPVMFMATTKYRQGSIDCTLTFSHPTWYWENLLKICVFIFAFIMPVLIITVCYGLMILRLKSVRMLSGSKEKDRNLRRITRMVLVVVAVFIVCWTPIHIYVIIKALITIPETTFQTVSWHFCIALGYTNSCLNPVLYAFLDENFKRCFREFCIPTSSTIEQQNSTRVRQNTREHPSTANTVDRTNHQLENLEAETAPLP

C57BL/6J mice = test: Warm-water tail-withdrawal test with cumulative morphine dosing; format: in vivo, mouse
MOR [4] = molecular target: T1, MOR; test: Desensitization study: DAMGO-induced [35S]GTPγS binding after ligand pretreatment of mMOR-CHO cells; format: cell-based; design: expressed in transfected cells; host or cells: CHO; settings: NFP 1 μM, 24 h pretreatment of mMOR-CHO cells
P-gp = test: Caco-2 bidirectional transport assay; settings: human
Caco-2 monolayers [5] = test: Caco-2 bidirectional transport assay
mouse μ opioid receptor = mouse μ opioid receptor (Mus musculus, UniProt P42866); test: Calcium mobilization assay in mMOR-CHO cells; format: cell-based
Chain of mouse μ opioid receptor (P42866 whole entry): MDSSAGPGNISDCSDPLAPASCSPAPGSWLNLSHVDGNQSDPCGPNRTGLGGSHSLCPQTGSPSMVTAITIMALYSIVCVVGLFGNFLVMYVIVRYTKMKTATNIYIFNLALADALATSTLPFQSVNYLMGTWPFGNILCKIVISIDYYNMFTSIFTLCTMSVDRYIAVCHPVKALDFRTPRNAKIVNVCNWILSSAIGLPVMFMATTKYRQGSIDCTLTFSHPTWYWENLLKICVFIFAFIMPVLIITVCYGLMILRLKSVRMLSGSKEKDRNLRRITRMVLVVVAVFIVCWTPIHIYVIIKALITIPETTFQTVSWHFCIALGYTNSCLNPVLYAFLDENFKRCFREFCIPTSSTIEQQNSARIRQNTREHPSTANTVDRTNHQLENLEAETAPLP

morphine-pelleted mice = test: Withdrawal study in morphine-pelleted mice
Caco-2 monolayers [6] = settings: related study, cited from earlier work
[7] = read-out: MOR 35S-GTP[γS] Binding % Emax of DAMGO, relative to 3 μM DAMGO

T1 sequence (P42866 whole entry): as above

Which Ki (MOR [1]) does the source give for `O=C(N[C@@H]1CC[C@@]2(O)[C@H]3Cc4ccc(O)c5c4[C@@]2(CCN3CC2CC2)[C@H]1O5)c1ccncc1C1CCCCC1` [Compound 10] here?
Its Ki is 0.78 ± 0.09 nM.

What about the Ki (KOR) of the same compound?
The Ki was 3.32 ± 0.54 nM.

What about the Ki (DOR) of the same compound?
Its Ki is 11.2 ± 1.91 nM.

What about the EC50 (MOR [2]; MOR-CHO membranes) of the same compound?
The EC50 was 2.46 ± 0.3 nM.

And the Emax (MOR [3]; [7])?
The Emax was 51.6 ± 3.73%.

With `O=C(Cc1ccncc1C(F)(F)F)N[C@@H]1CC[C@@]2(O)[C@H]3Cc4ccc(O)c5c4[C@@]2(CCN3CC2CC2)[C@H]1O5` [Compound 4, 17-Cyclopropylmetyl-3,14β-dihydroxy-4,5α-epoxy-6β-[(3′-trifluromethyl-4′-pyridyl)acetamido]morphinan] as the compound, how does the Ki (MOR [1]) read?
Its Ki is 0.43 ± 0.01 nM.

And the “Selectivity κ/μ” value (KOR)?
The value was 29.1.

And the Ki (KOR; read-out: Ki KOR)?
The Ki was 12.5 ± 0.89 nM.

And the “Selectivity δ/μ” value (DOR)?
The value was 143.7.

And the Ki (DOR; read-out: Ki DOR)?
Its Ki is 61.8 ± 5 nM.

And the EC50 (MOR [2]; MOR-CHO membranes)?
The EC50 was 1.38 ± 0.2 nM.

And the “MOR 35S-GTP[γS] Binding % Emax of DAMGO” value (MOR [2]; relative to 3 μM DAMGO)?
The value was 31.88 ± 3.39%.

Which Ki (MOR [1]) does the source give for `CC(C)Cc1cnccc1C(=O)N[C@@H]1CC[C@@]2(O)[C@H]3Cc4ccc(O)c5c4[C@@]2(CCN3CC2CC2)[C@H]1O5` [Compound 8] here?
Its Ki is 7.2 ± 0.81 nM.

What about the “Ki MOR” value (MOR [1]) of the same compound?
The value was “nanomolar binding affinity”.

What about the Ki (KOR) of the same compound?
The Ki was 75.6 ± 3.87 nM.

And the Ki (DOR)?
Its Ki is 149 ± 16 nM.

What about the “MOR 35S-GTP[γS] Binding EC50” value (MOR [2]; MOR-CHO membranes) of the same compound?
The value was “lowest potency”.

What about the EC50 (MOR [2]; MOR-CHO membranes) of the same compound?
Its EC50 is 19.7 ± 2.37 nM.

And the Emax (MOR [3]; [7])?
The Emax was 27.3 ± 0.25%.

For `O=C(N[C@@H]1CC[C@@]2(O)[C@H]3Cc4ccc(O)c5c4[C@@]2(CCN3CC2CC2)[C@H]1O5)c1ccncc1F` [Compound 1], which Ki (MOR [1]) is on record?
Its Ki is 0.36 ± 0.02 nM.

What about the Ki (KOR) of the same compound?
Its Ki is 4.8 ± 0.26 nM.

What about the “AD50 (antagonism of morphine antinociception)” value (Swiss Webster mice; 95% confidence level in brackets) of the same compound?
The value was 2.82 (1.34-5.94) mg/kg.

What about the “% MPE of morphine (10 mg/kg) in the presence of test compound (antagonism)” value (Swiss Webster mice; listed as 1 (NFP)) of the same compound?
The value was “antagonized morphine's antinociception effect significantly”.

What about the “% MPE of morphine (10 mg/kg) in the presence of test compound (antagonism)” value (Swiss Webster mice; listed as NFP) of the same compound?
Its value is 6.2±2.4%.

What about the “Internalization of the MOR” value (rat MOR) of the same compound?
The value was “did not”.

And the “Antinociception (% MPE) of morphine in NFP group relative to vehicle-treated group, Day 1” value (C57BL/6J mice; NFP 0.3 mg/kg s.c. pretreatment, 10 mg/kg cumulative morphine, p=0.0013)?
The value was “significantly less antinociception”.

And the “Antinociception (% MPE) of morphine in NFP group relative to Vehicle Group, Day 7” value (C57BL/6J mice; after five days of 10 mg/kg morphine + 0.3 mg/kg NFP, 32 mg/kg cumulative morphine, p=0.0138)?
The value was “significantly less antinociception”.

What about the “Emax of DAMGO-stimulated [35S]GTPγS binding after pretreatment (net)” value (MOR [4]) of the same compound?
Its value is 156.20 ± 13.83 fmol/mg.

And the Ki (DOR)?
Its Ki is 157 ± 7.81 nM.

And the “Relative efficacy versus naltrexone” value (MOR [2]; mMOR-CHO membranes)?
The value was about 3 fold.

And the EC50 (MOR [2]; MOR-CHO membranes)?
The EC50 was 1.2 ± 0.19 nM.

What about the efflux ratio at 2 h, 20 μM (P-gp; Caco-2, pH 7.4) of the same compound?
Its efflux ratio at 2 h, 20 μM is 7 ± 0.5.

What about the efflux ratio at 2 h, 20 μM (P-gp; Caco-2, pH 7.4, with elacridar 1 μM) of the same compound?
Its efflux ratio at 2 h, 20 μM is 1.3 ± 0.3.

And the P-gp substrate (Caco-2 monolayers [5]; Caco-2, with or without elacridar)?
The P-gp substrate was “may be a P-gp substrate”.

What about the “Papp, B-A (efflux) compared with Papp, A-B (absorption)” value (Caco-2 monolayers [5]; NFP 20 μM, 37° C., 2 h) of the same compound?
The value was “much higher”.

And the IC50 (mouse μ opioid receptor)?
The IC50 was 76.1 ± 2.5 nM.

What about the “EC50, Ca2+ signal (agonist mode)” value (mouse μ opioid receptor; mMOR-CHO cells transfected with Gαqi5, up to 3 μM) of the same compound?
The value was “did not induce any apparent Ca^2+ signal”.

What about the Emax (MOR [3]; read-out: Emax, stimulation of [35S]GTPγS binding (normalized to DAMGO), mMOR-CHO membranes, ligand alone, concentration-effect curve) of the same compound?
Its Emax is 34.9 ± 1.5%.

And the Emax (MOR [3]; [7])?
Its Emax is 35 ± 3.07%.

And the Emax (MOR [3]; read-out: Maximal inhibition (minimum) as % of maximal stimulation produced by DAMGO, in the presence of 0.3 μM DAMGO, mMOR-CHO membranes)?
Its Emax is 37.7 ± 1.5%.

What about the “Wet dog shakes, jumps and paw tremors versus naloxone 1 mg/kg” value (morphine-pelleted mice; 10 mg/kg s.c., 20 min) of the same compound?
Its value is “significantly fewer wet dog shakes, jumps, and paw tremors”.

And the “Jumps versus naloxone 1 mg/kg” value (morphine-pelleted mice; 50 mg/kg s.c.)?
Its value is “significantly fewer jumps”.

What about the “Wet dog shakes and paw tremors versus naloxone 1 mg/kg” value (morphine-pelleted mice; 50 and 100 mg/kg s.c.) of the same compound?
The value was “not significantly different from those of naloxone”.

What does the source list for `N#Cc1cnccc1C(=O)N[C@@H]1CC[C@@]2(O)[C@H]3Cc4ccc(O)c5c4[C@@]2(CCN3CC2CC2)[C@H]1O5` [Compound 2]?
Ki (MOR [1]): 0.87 ± 0.09 nM; Ki (KOR): 2.74 ± 0.47 nM; % MPE of morphine (10 mg/kg) in the presence of test compound (antagonism) (Swiss Webster mice; listed as 2 (NYP)): antagonized morphine's antinociception effect significantly; % MPE of morphine (10 mg/kg) in the presence of test compound (antagonism) (Swiss Webster mice; listed as NYP): 7.8±5.4%; Ki (DOR): 46.3 ± 7.86 nM; EC50 (MOR [2]; MOR-CHO membranes): 1.28 ± 0.2 nM; Emax (MOR [3]; [7]): 26.1 ± 0.74%; Wet dog shakes and jumps versus naloxone 1 mg/kg (morphine-pelleted mice; 1 mg/kg s.c.): significantly fewer wet dog shakes and jumps

Which melting point does the source give for `O=C(N[C@@H]1CCC2(O)C3Cc4ccc(O)c5c4[C@@]2(CCN3CC2CC2)[C@H]1O5)c1ccnc(Br)c1` (stereo partly drawn) (as salt: hydrochloride) here?
Its melting point is over 250 °C.

Which PDR (Caco-2 monolayers [6]; after elacridar was added) does the source give for `C[C@H]1O[C@@H](O[C@H]2[C@@H](O)C[C@H](O[C@H]3[C@@H](O)C[C@H](O[C@H]4CC[C@@]5(C)[C@H](CC[C@@H]6[C@@H]5C[C@@H](O)[C@]5(C)[C@@H](C7=CC(=O)OC7)CC[C@]65O)C4)O[C@@H]3C)O[C@@H]2C)C[C@H](O)[C@@H]1O` [digoxin] here?
Its PDR is 1.2.

And the PDR (Caco-2 monolayers [6]; without elacridar)?
Its PDR is 5.1.
